Measurements: patent publication US11932658B2 (BRISTOL-MYERS SQUIBB COMPANY, priority 2016, dated 2024)

Target: T1, PAR4 (Homo sapiens, UniProt Q96RI0)
T1 construct: expressed in transfected cells; host or cells: HEK293 PAR4 Clone 1.2A (BMS Arctic ID 383940)
T1 sequence (Q96RI0 18-385): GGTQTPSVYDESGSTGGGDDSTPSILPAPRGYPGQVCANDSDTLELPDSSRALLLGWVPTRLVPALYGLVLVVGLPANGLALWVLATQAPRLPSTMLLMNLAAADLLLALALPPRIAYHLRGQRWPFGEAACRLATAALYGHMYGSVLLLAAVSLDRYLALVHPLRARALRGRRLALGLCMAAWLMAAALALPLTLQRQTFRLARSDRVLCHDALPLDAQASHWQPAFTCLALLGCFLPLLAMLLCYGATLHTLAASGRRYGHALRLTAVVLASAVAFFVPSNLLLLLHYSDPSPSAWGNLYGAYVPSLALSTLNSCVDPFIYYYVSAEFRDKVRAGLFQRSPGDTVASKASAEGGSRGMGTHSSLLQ
Experiment: PAR4 FLIPR assay (antagonism of agonist peptide-induced calcium mobilization)
Assay type: cell-based
Outline: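 Antagonism was taken as block of calcium mobilization evoked by the agonist peptide H-Ala-Phe(4-F)-Pro-Gly-Trp-Leu-Val-Lys-Asn-[…]-NH2, added after 30 min room-temperature compound preincubation in dye-loaded PAR4-transfected HEK293 cells (endogenous PAR1). Fluorescence was read on FDSS, with compound addition alone used as the agonist counter-screen; values come from 11-point concentration-response curves.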

Compound	IC50 [nM]
COc1cnc2c(-c3nc4c(C)cc5c(c4s3)OCC(COC(=O)Nc3ccc(OCCN(C)C)nc3)O5)cc(C)cc2n1 (centres unmarked) [Example 128, (2-(2-methoxy-7-methylquinoxalin-5-yl)-4-methyl-7,8-dihydro-[1,4]dioxino[2′,3′:3,4]benzo[1,2-d]thiazol-7-yl)methyl (6-(2-(dimethylamino)ethoxy)pyridin-3-yl)carbamate]	4
COc1cnc2c(-c3nc4c(C)cc5c(c4s3)OCC(COC(=O)Nc3cnc4c(c3)ncn4C)O5)cc(C)cc2n1 (centres unmarked) [Example 129, (2-(2-methoxy-7-methylquinoxalin-5-yl)-4-methyl-7,8-dihydro-[1,4]dioxino[2′,3′:3,4]benzo[1,2-d]thiazol-7-yl)methyl (3-methyl-3H-imidazo [4,5-b]pyridin-6-yl)carbamate]	1.6
COc1cnc2c(-c3nc4c(C)cc5c(c4s3)OCC(COC(=O)Nc3ccc(-n4cnc(C)n4)nc3)O5)cc(C)cc2n1 (centres unmarked) [Example 130, (2-(2-methoxy-7-methylquinoxalin-5-yl)-4-methyl-7,8-dihydro-[1,4]dioxino[2′,3′:3,4]benzo[1,2-d]thiazol-7-yl)methyl (6-(3-methyl-1H-1,2,4-triazol-1-yl)pyridin-3-yl)carbamate]	1.5
COc1cnc2c(-c3nc4c(C)cc5c(c4s3)OCC(COC(=O)Nc3ccc(C(F)(F)F)nc3)O5)cc(C)cc2n1 (centres unmarked) [Example 131, (2-(2-methoxy-7-methylquinoxalin-5-yl)-4-methyl-7,8-dihydro-[1,4]dioxino[2′,3′:3,4]benzo[1,2-d]thiazol-7-yl)methyl (6-(trifluoromethyl)pyridin-3-yl)carbamate]	2
COc1cnc2c(-c3nc4c(C)cc5c(c4s3)OCC(COC(=O)Nc3cncc(Cl)c3)O5)cc(C)cc2n1 (centres unmarked) [Example 132, (2-(2-methoxy-7-methylquinoxalin-5-yl)-4-methyl-7,8-dihydro-[1,4]dioxino[2′,3′:3,4]benzo[1,2-d]thiazol-7-yl)methyl (5-chloropyridin-3-yl)carbamate]	3.9
CCOc1ccc(NC(=O)OCC2COc3c(cc(C)c4nc(-c5cc(C)cc6nc(OC)cnc56)sc34)O2)cn1 (centres unmarked) [Example 133, (2-(2-methoxy-7-methylquinoxalin-5-yl)-4-methyl-7,8-dihydro-[1,4]dioxino[2′,3′:3,4]benzo[1,2-d]thiazol-7-yl)methyl (6-ethoxypyridin-3-yl)carbamate]	150
COC(=O)c1cc(NC(=O)OCC2COc3c(cc(C)c4nc(-c5cc(C)cc6nc(OC)cnc56)sc34)O2)ccn1 (centres unmarked) [Example 134, methyl 4-((((2-(2-methoxy-7-methylquinoxalin-5-yl)-4-methyl-7,8-dihydro-[1,4]dioxino[2′,3′:3,4]benzo[1,2-d]thiazol-7-yl)methoxy)carbonyl)amino) picolinate]	3.3
COc1cnc2c(-c3nc4c(C)cc5c(c4s3)OCC(COC(=O)Nc3cncc(C(F)(F)F)c3)O5)cc(C)cc2n1 (centres unmarked) [Example 135]	1.4
COc1cnc2c(-c3nc4c(C)cc5c(c4s3)OCC(COC(=O)Nc3ccc(N4CCN(C(=O)OC(C)(C)C)CC4)nc3)O5)cc(C)cc2n1 (centres unmarked) [Example 136, tert-butyl 4-(5-((((2-(2-methoxy-7-methylquinoxalin-5-yl)-4-methyl-7,8-dihydro-[1,4]dioxino[2′,3′:3,4]benzo[1,2-d]thiazol-7-yl)methoxy)carbonyl)amino)pyridin-2-yl) piperazine-1-carboxylate]	210
COc1cnc2c(-c3nc4c(C)cc5c(c4s3)OCC(COC(=O)Nc3ccc(N4CCCC4)nc3)O5)cc(C)cc2n1 (centres unmarked) [Example 137, (2-(2-methoxy-7-methylquinoxalin-5-yl)-4-methyl-7,8-dihydro-[1,4]dioxino[2′,3′:3,4]benzo[1,2-d]thiazol-7-yl)methyl (6-(pyrrolidin-1-yl)pyridin-3-yl)carbamate]	6.1
COC(=O)c1cncc(NC(=O)OCC2COc3c(cc(C)c4nc(-c5cc(C)cc6nc(OC)cnc56)sc34)O2)c1 (centres unmarked) [Example 138, methyl 5-((((2-(2-methoxy-7-methylquinoxalin-5-yl)-4-methyl-7,8-dihydro-[1,4]dioxino[2′,3′:3,4]benzo[1,2-d]thiazol-7-yl)methoxy)carbonyl)amino)nicotinate]	3.4
COc1cnc2c(-c3nc4c(C)cc5c(c4s3)OCC(COC(=O)Nc3cnc4c(c3)CN(C(=O)OC(C)(C)C)CC4)O5)cc(C)cc2n1 (centres unmarked) [Example 139, tert-butyl 3-((((2-(2-methoxy-7-methylquinoxalin-5-yl)-4-methyl-7,8-dihydro-[1,4]dioxino[2′,3′:3,4]benzo[1,2-d]thiazol-7-yl)methoxy)carbonyl)amino)-7,8-dihydro-1,6-naphthyridine-6(5H)-carboxylate]	2.1
COc1cnc2c(-c3nc4c(C)cc5c(c4s3)OCC(COC(=O)Nc3ccc(NC(C)=O)nc3)O5)cc(C)cc2n1 (centres unmarked) [Example 140, (2-(2-methoxy-7-methylquinoxalin-5-yl)-4-methyl-7,8-dihydro-[1,4]dioxino[2′,3′:3,4]benzo[1,2-d]thiazol-7-yl)methyl (6-acetamidopyridin-3-yl)carbamate]	230
COc1cnc2c(-c3nc4c(C)cc5c(c4s3)OCC(COC(=O)Nc3ccc(N)nc3)O5)cc(C)cc2n1 (centres unmarked) [Example 141, (2-(2-methoxy-7-methylquinoxalin-5-yl)-4-methyl-7,8-dihydro-[1,4]dioxino[2′,3′:3,4]benzo[1,2-d]thiazol-7-yl)methyl (6-aminopyridin-3-yl)carbamate]	170
COc1cnc2c(-c3nc4c(C)cc5c(c4s3)OCC(COC(=O)Nc3cnc4[nH]ccc4c3)O5)cc(C)cc2n1 (centres unmarked) [Example 142, (2-(2-methoxy-7-methylquinoxalin-5-yl)-4-methyl-7,8-dihydro-[1,4]dioxino[2′,3′:3,4]benzo[1,2-d]thiazol-7-yl)methyl 1H-pyrrolo[2,3-b]pyridin-5-ylcarbamate]	2.9
COCc1cnc2c(-c3nc4cc5c(cc4s3)OCO5)cc(C)cc2n1 [Example 143, 6-(2-(methoxymethyl)-7-methylquinoxalin-5-yl)-[1,3]dioxolo[4′,5′:4,5]benzo[1,2-d]thiazole]	5.5
COc1cnc2c(-c3nc4ccc5c(c4s3)C[C@H](COC(=O)Nc3cnc(C)nc3)O5)cc(C)cc2n1 [Example 144, (R)-(2-(2-methoxy-7-methylquinoxalin-5-yl)-7,8-dihydrobenzofuro[5,4-d]thiazol-7-yl)me thyl (2-methylpyrimidin-5-yl)carbamate]	1.2
COc1cnc2c(-c3nc4cc(F)c5c(c4s3)C[C@H](COC(=O)Nc3cnc(C)nc3)O5)cc(C)cc2n1 [Example 145, (R)-(5-fluoro-2-(2-methoxy-7-methylquinoxalin-5-yl)-7,8-dihydrobenzofuro[5,4-d]thiazo 1-7-yl)methyl (2-methylpyrimidin-5-yl)carbamate]	1.8
COc1cnc2c(-c3nc4cc(F)c5c(c4s3)C[C@@H](CO)O5)cc(C)cc2n1 [Example 146, (S)-(5-fluoro-2-(2-methoxy-7-methylquinoxalin-5-yl)-7,8-dihydrobenzofuro[5,4-d]thiazol-7-yl)methanol]	1.1
COc1cnc2c(-c3nc4c(Cl)cc5c(c4s3)CC(COC(=O)Nc3ccc(C)nc3)O5)cc(CO)cc2n1 (centres unmarked) [Example 148, (4-chloro-2-(7-(hydroxymethyl)-2-methoxyquinoxalin-5-yl)-7,8-dihydrobenzofuro[5,4-d]thiazol-7-yl)methyl (6-methylpyridin-3-yl)carbamate]	0.7
COc1cnc2c(-c3nc4ccc5c(c4s3)C[C@@H](CO)O5)cc(C)cc2n1 [Example 149, (S)-(2-(2-methoxy-7-methylquinoxalin-5-yl)-7,8-dihydrobenzofuro[5,4-d]thiazol-7-yl)me thanol]	1.5
COc1cnc2c(-c3nc4ccc5c(c4s3)C[C@@H](COC(=O)Nc3cnc(C)nc3)O5)cc(C)cc2n1 [Example 150, (S)-(2-(2-methoxy-7-methylquinoxalin-5-yl)-7,8-dihydrobenzofuro[5,4-d]thiazol-7-yl)me thyl (2-methylpyrimidin-5-yl)carbamate]	5.4
COc1cnc2c(-c3nc4cc(F)c5c(c4s3)C[C@@H](COC(=O)Nc3cnc(C)nc3)O5)cc(C)cc2n1 [Example 151, (S)-(5-fluoro-2-(2-methoxy-7-methylquinoxalin-5-yl)-7,8-dihydrobenzofuro[5,4-d]thiazol-7-yl)methyl (2-methylpyrimidin-5-yl)carbamate]	3.9
CCOc1cnc2c(-c3nc4cc(F)c5c(c4s3)C[C@@H](CO)O5)cc(C)cc2n1 [Example 152, (S)-(2-(2-ethoxy-7-methylquinoxalin-5-yl)-5-fluoro-7,8-dihydrobenzofuro[5,4-d]thiazol-7-yl)methanol]	11
CCOc1cnc2c(-c3nc4cc(F)c5c(c4s3)C[C@H](COC(=O)Nc3cnc(C)nc3)O5)cc(C)cc2n1 [Example 153, (R)-(2-(2-ethoxy-7-methylquinoxalin-5-yl)-5-fluoro-7,8-dihydrobenzofuro[5,4-d]thiazol-7-yl)methyl (2-methylpyrimidin-5-yl)carbamate]	2.4
COc1cnc2c(-c3nc4cc(F)c5c(c4s3)C[C@H](COC(=O)Nc3cncc(C#N)c3)O5)cc(C)cc2n1 [Example 154, (R)-(5-fluoro-2-(2-methoxy-7-methylquinoxalin-5-yl)-7,8-dihydrobenzofuro[5,4-d]thiazol-7-yl)methyl (5-cyanopyridin-3-yl)carbamate]	6.3
